{"source": "patent US8309599B2", "about": "“Synthesis of FR901464 and analogs with antitumor activity” (University of Pittsburgh-Of The Commonwealth System of …, priority 2006, dated 2012)", "key": {"A549": {"tested_on": "A549", "type": "cell-based", "conditions": "Homo sapiens; A549, 3 to 5 days"}, "MCF-7 [1]": {"tested_on": "MCF-7", "test": "cells", "conditions": "Homo sapiens, MCF7"}, "H1299": {"tested_on": "H1299", "type": "cell-based", "conditions": "Homo sapiens, NCI-H1299; H1299, 3 to 5 days"}, "HeLa": {"tested_on": "HeLa", "type": "cell-based", "conditions": "Homo sapiens, 3 to 5 days"}, "MDA-MB-231": {"tested_on": "MDA-MB-231", "type": "cell-based", "conditions": "Homo sapiens; MDA-MB-231, 3 to 5 days"}, "HCT116": {"tested_on": "HCT116", "type": "cell-based", "conditions": "Homo sapiens, HCT-116; HCT116, 3 to 5 days"}, "PC-3": {"tested_on": "PC-3", "type": "cell-based", "conditions": "Homo sapiens; PC-3, 3 to 5 days"}, "DU145": {"tested_on": "DU145", "type": "cell-based", "conditions": "Homo sapiens, DU-145; DU145, 3 to 5 days"}, "HeLa cells [2]": {"tested_on": "HeLa cells", "test": "High-content analysis of mitotic arrest and microtubule perturbation", "type": "cell-based", "conditions": "HeLa cells treated for 21 h"}, "[3]": {"conditions": "mouse model; cited from earlier work"}, "MCF-7 cells [4]": {"tested_on": "MCF-7 cells", "conditions": "read-out: LC50 (apparent apoptosis); cited from earlier work"}, "[5]": {"tested_on": "DC3F transformed Chinese hamster cells", "test": "Antiproliferative activity in parental cells", "type": "cell-based", "conditions": "for GI50: Cricetulus griseus, DC3F, read-out: average GI50 DC3F; for growth inhibition of parental DC3F cells: in words"}, "MCF-7 cells [6]": {"tested_on": "MCF-7 cells", "test": "MCF-7 cell count with hemacytometer and trypan blue", "conditions": "for viability at 0.01 µM: Homo sapiens; for percent of cells present: 200 nM positive control", "protocol": "MCF-7 cells were used in this experiment.\nCell proliferation was measured by manual counting using a hemacytometer by trypsinizing and staining with trypan blue."}, "[7]": {"tested_on": "mRNA levels of p53, p21, c-myc, and E2F-1", "conditions": "MCF-7 cells at 20 nM; cited from earlier work"}, "MCF-7 [8]": {"tested_on": "MCF-7", "conditions": "MCF-7, 5-day assay"}, "[9]": {"tested_on": "multidrug resistant subline VCRd5L", "test": "Antiproliferative activity in multidrug resistant cells", "type": "cell-based, Chinese hamster", "conditions": "for GI50: Cricetulus griseus, read-out: average GI50 VCRd5L"}, "A-549 lung cancer cells": {"tested_on": "A-549 lung cancer cells", "test": "High-content selectivity study, cancer cells"}, "[10]": {"tested_on": "IMR-90 human lung fibroblasts", "test": "High-content selectivity study, normal cells"}, "HeLa cells [11]": {"tested_on": "HeLa cells", "test": "Reversibility test (drug washout, MTS)", "type": "cell-based", "conditions": "preliminary result", "method": "(§1) One concentration was used in each experiment for all times examined. […] At the desired time intervals, the media containing the drug was removed, the wells were washed 5 times with new media and 200 μL of new media containing 1% DMSO was added.\n(§2) All cells were treated at the same time meayamycin at 1 nM concentration. At the given time interval, the drug-containing media was removed and replaced with fresh media. Cell proliferation was measured at the last time interval (72 h)."}, "A549 cells": {"tested_on": "A549 cells", "test": "Reversibility test (drug washout, MTS)", "type": "cell-based", "conditions": "1 nM, washout at intervals, read at 72 h", "method": "as §1, §2"}, "MCF-7 cells [12]": {"tested_on": "MCF-7 cells", "test": "Reversibility test (drug washout, MTS)", "type": "cell-based", "conditions": "1 nM, washout at intervals, read at 72 h", "method": "as §1, §2"}, "[13]": {"conditions": "MCF7, 24 h, read-out: Percent Viable Cells, 10 nM, 24 hours"}, "[14]": {"conditions": "MCF7, 48 h, read-out: Percent Viable Cells, 10 nM, 48 hours"}}, "note": "Like-named read-outs stand apart in the source and are kept apart here."}
{"smiles": "CC(/C=C/[C@H]1OC(C)(C)C[C@@]2(CO2)[C@@H]1O)=C\\C[C@@H]1O[C@H](C)[C@H](NC(=O)/C=C\\[C@H](C)O)C[C@@H]1C", "note": "[4′-desacetyl meayamycin]", "values": [{"measurement": "GI50", "setting": "A549", "value": 0.74, "unit": "nM"}, {"measurement": "GI50", "setting": "MCF-7 [1]", "value": 0.48, "unit": "nM"}, {"measurement": "GI50", "setting": "H1299", "value": 1, "unit": "nM"}, {"measurement": "GI50", "setting": "HeLa", "value": 1, "unit": "nM"}, {"measurement": "GI50", "setting": "MDA-MB-231", "value": 0.35, "unit": "nM"}]}
{"smiles": "CC(=O)O[C@@H](C)/C=C\\C(=O)N[C@@H]1CC[C@H](C/C=C(C)/C=C/[C@H]2OC(C)(C)C[C@@]3(CO3)[C@@H]2O)O[C@@H]1C", "note": "[12-desmethyl meayamycin]", "values": [{"measurement": "GI50", "setting": "A549", "value": 1, "unit": "nM"}, {"measurement": "GI50", "setting": "MCF-7 [1]", "value": 0.3, "unit": "nM"}, {"measurement": "GI50", "setting": "HCT116", "value": 2.2, "unit": "nM"}, {"measurement": "GI50", "setting": "PC-3", "value": 1.6, "unit": "nM"}, {"measurement": "GI50", "setting": "H1299", "value": 2.8, "unit": "nM"}, {"measurement": "GI50", "setting": "DU145", "value": 3.5, "unit": "nM"}, {"measurement": "GI50", "setting": "MDA-MB-231", "value": 0.7, "unit": "nM"}]}
{"smiles": "CC(=O)O[C@@H](C)/C=C\\C(=O)N[C@@H]1C[C@H](C)[C@H](C/C=C(C)/C=C/[C@H]2O[C@](C)(O)C[C@@]3(CO3)[C@@H]2O)O[C@@H]1C", "note": "[FR901464]", "values": [{"measurement": "mitotic arrest", "setting": "HeLa cells [2]", "value": "neither FR 901464 nor meayamycin were mitotic arresters"}, {"measurement": "antitumor activity, active dose", "setting": "[3]", "value": "0.056 to 0.18", "unit": "mg/kg"}, {"measurement": "CC50", "setting": "MCF-7 cells [4]", "value": 0.5, "unit": "nM"}, {"measurement": "GI50", "setting": "[5]", "value": "7.49 ± 1.26", "unit": "nM"}, {"measurement": "growth inhibition of parental DC3F cells", "setting": "[5]", "value": "potently inhibited the growth"}, {"measurement": "viability at 0.01 µM", "setting": "MCF-7 cells [6]; [13]", "value": 81, "unit": "%"}, {"measurement": "viability at 0.01 µM", "setting": "MCF-7 cells [6]; [14]", "value": 49, "unit": "%"}, {"measurement": "mRNA levels of p53, p21, c-myc, and E2F-1", "setting": "[7]", "value": "lowers the mRNA levels"}]}
{"smiles": "CC(=O)O[C@@H](C)/C=C\\C(=O)N[C@@H]1CO[C@H](C/C=C(C)/C=C/[C@H]2OC(C)(C)C[C@@]3(CO3)[C@@H]2O)O[C@@H]1C", "note": "[acetal meayamycin]", "values": [{"measurement": "GI50", "setting": "MCF-7 [1]", "value": 2.5, "unit": "nM"}]}
{"smiles": "CC(/C=C/[C@H]1OC(C)(C)C[C@@]2(CO2)[C@@H]1O)=C\\C[C@@H]1O[C@H](C)[C@H](NC(=O)/C=C\\[C@H](C)OC(=O)N2CCOCC2)C[C@@H]1C", "note": "[meayamycin B, (2Z,4S)-4-[(morpholinylcarbonyl)oxy]-N-[(2R,3R,5S,6S)-tetrahydro-6-[(2E,4E)-5-[(3R,4R,5R)-4-hydroxy-7,7-dimethyl-1,6-dioxaspiro[2.5]oct-5-yl]-3-methyl-2,4-pentadien-1-yl]-2,5-dimethyl-2H-pyran-3-yl]-2-pentenamide]", "values": [{"measurement": "times more potent than meayamycin in cultured cells", "setting": "MCF-7 [8]", "value": 2, "unit": "times"}]}
{"smiles": "CC(=O)O[C@@H](C)/C=C\\C(=O)N[C@@H]1C[C@H](C)[C@H](C/C=C(C)/C=C/[C@H]2OC(C)(C)C[C@@]3(CO3)[C@@H]2O)O[C@@H]1C", "note": "[meayamycin]", "values": [{"measurement": "GI50", "setting": "A549", "value": 0.11, "unit": "nM"}, {"measurement": "mitotic arrest", "setting": "HeLa cells [2]", "value": "neither FR 901464 nor meayamycin were mitotic arresters"}, {"measurement": "GI50", "setting": "MCF-7 [1]", "value": 0.01, "unit": "nM"}, {"measurement": "GI50", "setting": "HCT116", "value": 0.044, "unit": "nM"}, {"measurement": "activity in the multidrug resistant cells", "setting": "[9]", "value": "retained picomolar activity"}, {"measurement": "fold resistance", "setting": "[9]", "value": 1.5, "unit": "fold"}, {"measurement": "GI50", "setting": "[9]", "value": "0.71 ± 0.27", "unit": "nM"}, {"measurement": "GI50", "setting": "PC-3", "value": 0.058, "unit": "nM"}, {"measurement": "GI50", "setting": "[5]", "value": "0.46 ± 0.09", "unit": "nM"}, {"measurement": "growth inhibition of parental DC3F cells", "setting": "[5]", "value": "active in the subnanomolar range"}, {"measurement": "GI50", "setting": "H1299", "value": 0.091, "unit": "nM"}, {"measurement": "GI50", "setting": "DU145", "value": 0.47, "unit": "nM"}, {"measurement": "cell loss", "setting": "A-549 lung cancer cells; 10 nM, 24 hours, compared with normal cells", "value": "more pronounced cell loss"}, {"measurement": "nuclear morphology", "setting": "A-549 lung cancer cells; 24 h", "value": "did not cause nuclear fragmentation but instead enlarged nuclei"}, {"measurement": "p53 induction", "setting": "A-549 lung cancer cells; 24 h", "value": "p53 induction"}, {"measurement": "caspase cleavage", "setting": "A-549 lung cancer cells; 24 h, some experiments", "value": "low level of caspase cleavage"}, {"measurement": "growth inhibition of A549 cells", "setting": "A-549 lung cancer cells; FIG. 4", "value": "inhibits the growth of A549 cells"}, {"measurement": "GI50", "setting": "HeLa", "value": 0.24, "unit": "nM"}, {"measurement": "Percent Viable Cells", "setting": "MCF-7 cells [6]; 10 nM, 48 hours, listed as Compound IX, 0.01 µM", "value": 26, "unit": "%"}, {"measurement": "viability at 0.01 µM", "setting": "MCF-7 cells [6]; [13]", "value": 46, "unit": "%"}, {"measurement": "viability at 0.01 µM", "setting": "MCF-7 cells [6]; [14]", "value": 27, "unit": "%"}, {"measurement": "GI50", "setting": "MDA-MB-231", "value": 0.024, "unit": "nM"}, {"measurement": "p53 induction", "setting": "[10]; 24 h", "value": "magnitude of response was smaller"}, {"measurement": "growth inhibition of normal lung cells (IMR-90)", "setting": "[10]; FIG. 5", "value": "only mildly"}, {"measurement": "reversibility of growth inhibition", "setting": "HeLa cells [11]", "value": "reversibly inhibits the growth"}, {"measurement": "reversibility of growth inhibition", "setting": "A549 cells", "value": "irreversibly inhibits the growth"}, {"measurement": "reversibility of growth inhibition", "setting": "MCF-7 cells [12]", "value": "irreversibly inhibits the growth"}]}
{"smiles": "CC(=O)O[C@H]1C(=O)[C@@]2(C)[C@H]([C@H](OC(=O)c3ccccc3)[C@]3(O)C[C@H](OC(=O)[C@H](O)[C@@H](NC(=O)c4ccccc4)c4ccccc4)C(C)=C1C3(C)C)[C@]1(OC(C)=O)CO[C@@H]1C[C@@H]2O", "note": "[paclitaxel]", "values": [{"measurement": "mitotic arrest", "setting": "HeLa cells [2]", "value": "caused mitotic arrest"}, {"measurement": "fold resistant (VCRd-5L cells)", "setting": "[9]", "value": 60, "unit": "fold"}, {"measurement": "GI50", "setting": "[9]; average ± SD (n)", "value": "2680 ± 109", "unit": "nM"}, {"measurement": "GI50", "setting": "[5]; average ± SD (n)", "value": "45.4 ± 11.3", "unit": "nM"}, {"measurement": "percent of cells present", "setting": "MCF-7 cells [6]; 24 hour", "value": 70, "unit": "%"}, {"measurement": "percent of cells present", "setting": "MCF-7 cells [6]; 48 hour", "value": 52, "unit": "%"}]}
{"smiles": "CC[C@]1(O)C[C@H]2CN(CCc3c([nH]c4ccccc34)[C@@](C(=O)OC)(c3cc4c(cc3OC)N(C=O)[C@H]3[C@@](O)(C(=O)OC)[C@H](OC(C)=O)[C@]5(CC)C=CCN6CC[C@]43[C@@H]65)C2)C1", "note": "[vincristine]", "values": [{"measurement": "mitotic arrest", "setting": "HeLa cells [2]", "value": "caused mitotic arrest"}, {"measurement": "fold resistant (VCRd-5L cells)", "setting": "[9]", "value": "> 250", "unit": "fold"}, {"measurement": "GI50", "setting": "[9]; average ± SD (n)", "value": "> 5000", "unit": "nM"}, {"measurement": "GI50", "setting": "[5]; average ± SD (n)", "value": "18.8 ± 16.2", "unit": "nM"}]}
